Assay results reported in patent publication US7786141B2 (Vertex Pharmaceuticals Incorporated, priority 2004, dated 2010).

How the values were obtained:
M4 muscarinic receptor = biological target: T1, M4 muscarinic receptor (Homo sapiens, UniProt P08173); assay: Functional mobilization of intracellular calcium (FLIPR) in M4-CHO cells; assay type: cell-based; settings: M4 receptor, calcium mobilization; for Emax: read-out: M4 Efficacy
T1 construct: expressed in transfected cells; host or cells: CHO (M4-CHO)
T1 sequence (P08173 1-479): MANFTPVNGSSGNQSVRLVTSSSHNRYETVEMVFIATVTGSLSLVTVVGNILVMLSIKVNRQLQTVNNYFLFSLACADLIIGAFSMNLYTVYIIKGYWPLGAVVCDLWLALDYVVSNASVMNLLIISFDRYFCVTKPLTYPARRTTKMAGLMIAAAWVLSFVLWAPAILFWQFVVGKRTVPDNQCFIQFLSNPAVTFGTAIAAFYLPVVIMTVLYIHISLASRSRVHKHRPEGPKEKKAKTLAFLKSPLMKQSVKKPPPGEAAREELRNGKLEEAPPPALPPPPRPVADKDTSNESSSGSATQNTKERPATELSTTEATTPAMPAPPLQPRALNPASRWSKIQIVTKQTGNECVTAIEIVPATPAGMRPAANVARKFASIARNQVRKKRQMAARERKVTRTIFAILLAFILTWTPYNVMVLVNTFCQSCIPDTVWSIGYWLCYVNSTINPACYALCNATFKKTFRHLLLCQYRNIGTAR
Procedure, shortened: (§1)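 Two modes: direct compound addition for agonism, or 15 min compound pre-incubation (or co-application) before carbachol at EC80 for inhibition. Calcium signal from Fluo-3 AM or Calcium 3 dye in CHO cells, 1 mM probenecid, pH 7.4, read 60 sec at 488/540 nm; DMSO 0.5% final.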

M1 muscarinic receptor = biological target: T2, M1 muscarinic receptor (Homo sapiens, UniProt P11229); assay: Functional mobilization of intracellular calcium (FLIPR) in M1-CHO cells; assay type: cell-based; settings: M1 receptor, calcium mobilization; for Emax: read-out: M1 Efficacy
T2 construct: expressed in transfected cells; host or cells: CHO (M1-CHO)
T2 sequence (P11229 1-460): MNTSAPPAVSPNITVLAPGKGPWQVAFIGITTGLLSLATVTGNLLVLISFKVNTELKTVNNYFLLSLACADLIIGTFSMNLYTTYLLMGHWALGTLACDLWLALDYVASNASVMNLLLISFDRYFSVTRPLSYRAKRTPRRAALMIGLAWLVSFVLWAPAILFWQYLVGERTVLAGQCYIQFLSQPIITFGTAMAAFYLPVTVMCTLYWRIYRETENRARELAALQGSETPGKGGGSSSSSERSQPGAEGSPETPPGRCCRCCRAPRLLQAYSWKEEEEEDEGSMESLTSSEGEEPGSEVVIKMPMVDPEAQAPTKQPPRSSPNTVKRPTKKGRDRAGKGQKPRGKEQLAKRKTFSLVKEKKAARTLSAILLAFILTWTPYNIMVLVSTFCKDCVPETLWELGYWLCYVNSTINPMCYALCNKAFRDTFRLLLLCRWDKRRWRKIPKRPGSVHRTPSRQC
Procedure, shortened: as §1

SMILES	M4 Activity (M4 muscarinic receptor)	Emax (M4 muscarinic receptor)	M1 Activity (M1 muscarinic receptor)	Emax (M1 muscarinic receptor)	M4 Efficacy (M4 muscarinic receptor)	M1 Efficacy (M1 muscarinic receptor)
CC(C)OC(=O)N1C2CCC1CC(N1CCC3(CC1)COc1ccc(F)cc13)C2 (stereo not shown) [compound 320]	x (activity was measured to be greater than 1.0 μM)	< 65%	xx (activity was measured to be between 0.1 μM and 1.0 μM)	65 to 85%	–	–
CCOC(=O)N1CCC(N2CCC3(CC2)CN(C(=O)c2ccno2)c2ccc(F)cc23)CC1 [compound 321]	x (activity was measured to be greater than 1.0 μM)	65 to 85%	xx (activity was measured to be between 0.1 μM and 1.0 μM)	65 to 85%	–	–
CCOC(=O)N1C2CCC1CC(N1CCC3(CC1)CN(C(C)=O)c1c(F)cccc13)C2 (stereo not shown) [compound 322]	xxx (activity was measured to be less than 0.1 μM)	> 85%	xx (activity was measured to be between 0.1 μM and 1.0 μM)	< 65%	–	–
CC(=O)N[C@@H]1CC2(CCN([C@@H]3C[C@H]4CC[C@@H]3C4)CC2)c2ccccc21 [compound 323]	x (activity was measured to be greater than 1.0 μM)	65 to 85%	xx (activity was measured to be between 0.1 μM and 1.0 μM)	65 to 85%	–	–
CCCC(=O)N1CC2(CCN(C3CCN(C(=O)OCC)CC3)CC2)c2cc(F)ccc21 [compound 324]	x (activity was measured to be greater than 1.0 μM)	65 to 85%	xx (activity was measured to be between 0.1 μM and 1.0 μM)	65 to 85%	–	–
Fc1ccc2c(c1)C1(CCN(C3CCCCC3)CC1)CN2 [compound 325]	x (activity was measured to be greater than 1.0 μM)	< 65%	x (activity was measured to be greater than 1.0 μM)	65 to 85%	–	–
CCOC(=O)N[C@H]1CC2(CCN(C[C@H]3C[C@H]4CC[C@H]3C4)CC2)c2ccccc21 [compound 326]	x (activity was measured to be greater than 1.0 μM)	< 65%	x (activity was measured to be greater than 1.0 μM)	< 65%	–	–
CCOC(=O)N1CCC(CN2CCC3(CC2)C(=O)N(C)c2ccccc23)CC1 [compound 327]	x (activity was measured to be greater than 1.0 μM)	< 65%	x (activity was measured to be greater than 1.0 μM)	< 65%	–	–
CCCC1CCC(N2CCC3(CC2)CNc2ccc(F)cc23)CC1 (stereo not shown) [compound 328]	x (activity was measured to be greater than 1.0 μM)	65 to 85%	xx (activity was measured to be between 0.1 μM and 1.0 μM)	< 65%	–	–
CCCOC(=O)N1C2CCC1CC(N1CCC3(CC1)CN(C(=O)OC1CCC1)c1ccc(F)cc13)C2 (stereo not shown) [compound 329]	x (activity was measured to be greater than 1.0 μM)	< 65%	xxx (activity was measured to be less than 0.1 μM)	65 to 85%	–	–
CCOC(=O)N1CCC(N2CCC3(CC2)CN(C(=O)c2ccc(C)cc2)c2ccc(F)cc23)CC1 [compound 330]	x (activity was measured to be greater than 1.0 μM)	< 65%	x (activity was measured to be greater than 1.0 μM)	< 65%	–	–
CCOC(=O)N1CCC(N2CCC3(CC2)CN(C(=O)c2ccccn2)c2ccc(F)cc23)CC1 [compound 331]	x (activity was measured to be greater than 1.0 μM)	< 65%	xx (activity was measured to be between 0.1 μM and 1.0 μM)	< 65%	–	–
CCOC(=O)N1C2CCC1CC(CN1CCC3(CC1)CNc1ccc(C)cc13)C2 (stereo not shown) [compound 332]	x (activity was measured to be greater than 1.0 μM)	< 65%	x (activity was measured to be greater than 1.0 μM)	< 65%	–	–
Clc1ccc2c(c1)C1(CCN(C3CCCCCC3)CC1)CN2 [compound 333]	x (activity was measured to be greater than 1.0 μM)	< 65%	x (activity was measured to be greater than 1.0 μM)	< 65%	–	–
CCCC1CCC(N2CCC3(CC2)CNc2ccccc23)CC1 (stereo not shown) [compound 334]	x (activity was measured to be greater than 1.0 μM)	< 65%	x (activity was measured to be greater than 1.0 μM)	< 65%	–	–
CCOC(=O)N1CCC(N2CCC3(CC2)CN(C(=O)c2cc(C)oc2C)c2ccc(F)cc23)CC1 [compound 335]	x (activity was measured to be greater than 1.0 μM)	< 65%	x (activity was measured to be greater than 1.0 μM)	< 65%	–	–
O=C(O[C@@H]1CCOC1)N1C2CCC1CC(N1CCC3(CC1)C(=O)Nc1ccccc13)C2 (stereo partly shown) [compound 336]	x (activity was measured to be greater than 1.0 μM)	< 65%	x (activity was measured to be greater than 1.0 μM)	< 65%	–	–
CC(=O)N[C@H]1CC2(CCN(C3CC4CCC(C4)C3)CC2)c2ccccc21 (stereo partly shown) [compound 337]	x (activity was measured to be greater than 1.0 μM)	< 65%	x (activity was measured to be greater than 1.0 μM)	< 65%	–	–
O=C(O[C@@H]1CCOC1)N1C2CCC1CC(N1CCC3(CC1)COc1ccc(F)cc13)C2 (stereo partly shown) [compound 338]	x (activity was measured to be greater than 1.0 μM)	< 65%	x (activity was measured to be greater than 1.0 μM)	< 65%	–	–
CC(=O)N(C)[C@@H]1CC2(CCN(C[C@H]3C[C@H]4CC[C@H]3C4)CC2)c2ccccc21 [compound 339]	x (activity was measured to be greater than 1.0 μM)	< 65%	x (activity was measured to be greater than 1.0 μM)	< 65%	–	–
CCOC(=O)N1CCC(N2CCC3(CC2)CN(C(C)=O)c2ccc(OC)cc23)CC1 [compound 340]	x (activity was measured to be greater than 1.0 μM)	< 65%	xx (activity was measured to be between 0.1 μM and 1.0 μM)	< 65%	–	–
CCCC1CCC(N2CCC3(CC2)CNc2ccc(Cl)cc23)CC1 (stereo not shown) [compound 341]	x (activity was measured to be greater than 1.0 μM)	< 65%	x (activity was measured to be greater than 1.0 μM)	< 65%	–	–
c1ccc2c(c1)NCC21CCN(CC2CCCCC2)CC1 [compound 342]	xx (activity was measured to be between 0.1 μM and 1.0 μM)	65 to 85%	xxx (activity was measured to be less than 0.1 μM)	65 to 85%	–	–
CC(=O)N1CC2(CCN(C3CCCC3)CC2)c2cc(F)ccc21 [compound 343]	xxx (activity was measured to be less than 0.1 μM)	< 65%	xxx (activity was measured to be less than 0.1 μM)	65 to 85%	–	–
CCOC(=O)N1C2CCC1CC(N1CCC3(CC1)CN(C(=O)O[C@@H]1CCOC1)c1ccc(F)cc13)C2 (stereo partly shown) [compound 344]	xx (activity was measured to be between 0.1 μM and 1.0 μM)	–	xxx (activity was measured to be less than 0.1 μM)	–	x (efficacy was calculated to be less than 65%)	xx (efficacy was calculated to be between 85% and 65%)
CC(C)OC(=O)N1C2CCC1CC(N1CCC3(CC1)CN(C(=O)C1CC1)c1ccc(F)cc13)C2 (stereo not shown) [compound 345]	xx (activity was measured to be between 0.1 μM and 1.0 μM)	< 65%	xxx (activity was measured to be less than 0.1 μM)	< 65%	–	–
CC#CCOC(=O)N1CC2(CCN(C3CCN(C(=O)OCC)CC3)CC2)c2cc(F)ccc21 [compound 346]	x (activity was measured to be greater than 1.0 μM)	< 65%	xxx (activity was measured to be less than 0.1 μM)	< 65%	–	–
CCOC(=O)N(C)[C@H]1CC2(CCN(C[C@H]3C[C@H]4CC[C@H]3C4)CC2)c2ccccc21 [compound 347]	xx (activity was measured to be between 0.1 μM and 1.0 μM)	> 85%	xxx (activity was measured to be less than 0.1 μM)	65 to 85%	–	–
